Experimental data from article PMC9570594, “Development of Novel Pyridine-Thiazole Hybrid Molecules as Potential Anticancer Agents” (Molecules, 2022).
Read-outs that look alike come from different tables or passages of the source.

Columns and labels:
CCRF-CEM (Leukemia) = experiment: NCI one-dose SRB assay; type: cell-based, human; conditions: 10 μM, 48 h
HL-60(TB) (Leukemia) = experiment: NCI one-dose SRB assay; type: cell-based, human; conditions: 10 μM, 48 h
MDA-MB-435 (Melanoma) = experiment: NCI one-dose SRB assay; type: cell-based, human; conditions: 10 μM, 48 h
[1] = tested on: MDA-MB-468 (Brest Cancer); experiment: NCI one-dose SRB assay; type: cell-based, human; conditions: 10 μM, 48 h
[2] = tested on: NCI-H522 (Non-Small Cell Lung Cancer); experiment: NCI one-dose SRB assay; conditions: 10 μM, 48 h
Experimental: (§1) Primary anticancer assays (Table 3) on a panel of 60 cancer cell lines at one dose-assay (10^−5 M) were performed according to the NCI protocol, as described elsewhere [31, 32, 33, 34, 35].
(§2) A primary anticancer assay was performed on a panel of approximately sixty human tumor cell lines derived from nine neoplastic diseases, in accordance with the protocol of the Drug Evaluation Branch, National Cancer Institute, Bethesda [31, 32, 33, 34, 35]. Tested compounds were added to the culture at a single concentration (10^−5 M) and the cultures were incubated for 48 h. End point determinations were made with a protein binding dye, Sulphorhodamine B (SRB). […] The percentage growth was evaluated spectrophotometrically versus controls not treated with test agents.

K-562 (Leukemia) = experiment: NCI one-dose SRB assay; conditions: 10 μM, 48 h
Experimental: as §1, §2

SR (Leukemia) = experiment: NCI one-dose SRB assay; conditions: 10 μM, 48 h
Experimental: as §1, §2

HCT-116 (colon) = experiment: MTT assay of cell viability
[3] = tested on: HCT-116 p53 (−/−) colon cancer cells; experiment: MTT assay of cell viability; conditions: Homo sapiens, HCT-116, 72 h
Text: The cell lines used in our work were kindly provided by a Collection at the Institute of Molecular Biology and Genetics, National Academy of Sciences of Ukraine (Kyiv, Ukraine).

MCF-7 (breast) = experiment: MTT assay of cell viability
Jurkat (leukemia) = experiment: MTT assay of cell viability; conditions: Homo sapiens, 72 h
A549 (lung) = experiment: MTT assay of cell viability; conditions: Homo sapiens, A549, 72 h
SK-OV-3 (ovarian) = experiment: MTT assay of cell viability; conditions: Homo sapiens, SK-OV-3, 72 h
KB3-1 (cervix) = experiment: MTT assay of cell viability
[4] = tested on: murine macrophages of J774.2 line; experiment: MTT assay of cell viability; conditions: Mus musculus, J774.2, 72 h
[5] = tested on: human embryonic kidney HEK293 cells; experiment: MTT assay of cell viability; conditions: HEK293, 72 h
[6] = tested on: human epidermal keratinocytes of HaCaT line; experiment: MTT assay of cell viability; conditions: 72 h
[7] = tested on: BALB-3T3 (normal mouse fibroblasts); experiment: MTT assay of cell viability; conditions: BALB/3T3, 72 h
[8] = tested on: panel of 60 cancer cell lines; experiment: NCI DTP one-dose primary anticancer assay (10^-5 M, SRB); conditions: 10 μM; for Range of Growth, %: 48 h, 60 cell lines; for Positive Cytostatic Effect: number of cell lines with percent growth from 0 to 50 / total number of cell lines; for Positive Cytotoxic Effect: number of cell lines with percent growth of <0 / total number of cell lines
Experimental: as §1, §2

SK Mel-5 (Melanoma) = experiment: NCI one-dose SRB assay; conditions: 10 μM, 48 h
Experimental: (§3) Tested compounds were added to the culture at a single concentration (10^−5 M) and the cultures were incubated for 48 h. End point determinations were made with a protein binding dye, Sulphorhodamine B (SRB). […] The percentage growth was evaluated spectrophotometrically versus controls not treated with test agents.

T-47D (Brest Cancer) = experiment: NCI one-dose SRB assay; conditions: 10 μM, 48 h
Experimental: as §3

KB3-1 cells = experiment: Fluorescent microscopy of morphological changes (Hoechst 33342/PI); type: cell-based, human; conditions: 48 h
Experimental: In addition, we observed multinucleated giant cells. […] The condensed chromatin, a characteristic feature of apoptosis, and dead cells were observed under the action of all studied compounds.
KB3-1 cells were seeded in the 12-well plates (CytoONE, STARLAB International GmbH, Hamburg, Germany) on glass microscopic slides and incubated overnight. Studied compounds were added to cells in the following concentrations: the compounds 3, 4 and cisplatin—5 µM/mL, doxorubicin—1 µM/mL. Cells were incubated for the next 48 h. Chromatin material of living and apoptotic cells was stained with the DNA-specific fluorescent dye Hoechst 33342 (Sigma-Aldrich, Burlington, MA, USA) and the DNA/RNA-specific fluorescent dye Propidium iodide (PI, Sigma, Burlington, MA, USA). Fluorochromes were added to cultured cells at final concentrations 0.2–0.5 μg/mL for Hoechst 33342 and 0.1 μg/mL—for PI. Images were made with a fluorescent Zeiss microscope (Carl Zeiss, Oberkochen, Germany). Magnification ×400. Microphotographs were additionally analyzed using ImagePro7N software.

MCF-7 cells [9] = experiment: PARP-1 inhibition in vitro: MTT after Fluzoparib pretreatment; type: cell-based, human; conditions: for IC50: Homo sapiens, MCF7
Experimental: Taking into account the above data, PARP1 inhibition in vitro was investigated using pretreatment of the MCF-7 cells with the Fluzoparib, a potent PARP1 inhibitor in the non-toxic concentrations of 5, 10, and 15 µM. It had no significant growth inhibitory effect in such doses, and a reduction of cell viability by only 10–12% was observed compared to control (non-treated) cells. […] The preincubation step was used to bind PARP1 molecules, which were the potential targets of the studied compounds and to test if it would affect the activity of 3 and 4. […] The preincubation of cells with the Fluzoparib decreased their sensitivity to the compound 3 treatment in a less pronounced manner, compared with the effect of the compound 4. […] Changes in structure of the started compound 3 may cause an enhancement of the ability of molecule 4 to inhibit the activity of PARP1.
To determine PARP inactivation, the MCF-7 cells were pretreated for 2 h in the non-toxic concentrations of 5, 10, 15 µM of the Fluzoparib (Med Chem Express, Monmouth Junction, NJ, USA), a potent PARP1 inhibitor used in the chemotherapy. Then, the medium was removed and increasing doses of the compounds 3 and 4 were added and cells were incubated for the next 72 h. The IC50 values of compounds were determined by the MTT assay, as described.

[10] = tested on: HL-60 cells of the acute human promyelocytic leukemia; experiment: MTT assay of cell viability
[11] = tested on: panel of cancer cell lines; experiment: MTT assay, summary over the tumor cell lines; conditions: 72 h; for IC50: Homo sapiens, read-out: IC50 toward tumor cells (depending on tumor cell line)
[12] = tested on: pseudo-normal cell lines (HEK293, HaCaT); experiment: MTT assay, summary over pseudo-normal cell lines; conditions: Homo sapiens, 72 h, read-out: IC50 towards pseudo-normal cell lines
MCF-7 cells [13] = experiment: Clonogenic assay; type: cell-based, human; conditions: MCF-7, positive control, concentration not given, 10 days
Experimental: This assay essentially tests every cell in the population for its ability to undergo “unlimited” division. […] At 1 µM concentration, it reduced the ability of the MCF-7 single cell to grow into a colony to 36%. […] With a concentration equivalent to 10 µM of the compound 4, the DMSO increased the cell’s ability to grow in colony.
MCF-7 cells were seeded in triplicate in 6-well plates (CytoONE, STARLAB International GmbH, Germany) at a density of 500 cells per well. After 24 h incubation, the compound 4 was added in 1 and 10 μM concentrations and cells were treated for 10 days. Colonies containing ≥ 50 cells were fixed with 50% (v/v) methanol in the PBS and stained with crystal violet (Sigma-Aldrich, Burlington, MA, USA). Stained colonies were counted and expressed as a fraction of the untreated control.

[14] = tested on: MCF-7 breast cancer cells; experiment: Mitochondrial membrane potential, JC-1 (flow cytometry); type: cell-based, human; conditions: MCF-7, 5 µM, 24 h, control 5.1 ± 0.7%
Experimental: A decrease in the mitochondrial membrane potential (MMP, ΔΨm) is one of the earliest changes observed at apoptosis. […] The MCF-7 cells had depolarized mitochondria, reaching 25.3 ± 1.5% and 24.7 ± 0.4% of the cell population treated with the compound 4 and 7, respectively. In the control, there were only 5.1 ± 0.7% cells with a decreased ΔΨm.
Disruption of the MMP was assessed using the lipophilic cationic probe 5,5,6,6-tetrachloro-1,1,3,3-tetraethylbenzimidazolcarbocyanine iodide (JC-1 MitoScreen kit; BD Biosciences San Diego, CA, USA), as described previously. The entire assay was performed according to the manufacturer’s instructions provided with the purchased kit. […] Briefly, unfixed MCF-7 cells were washed and resuspended in the PBS supplemented with the JC-1 dye. Then, cells were incubated for 15 min at room temperature (RT) in the dark, washed, and resuspended in the PBS for the immediate BD FACSCanto II flow cytometry analysis.

[15] = tested on: MCF-7 breast cancer cells; experiment: Annexin V-FITC/PI binding assay (flow cytometry); conditions: MCF-7, 5 µM, 24 h; control 4.4 ± 0.6%
Experimental: Annexin V-FITC and Propidium Iodide were used for apoptosis measurement.
Apoptosis was determined, as described [42], using Annexin V-FITC binding by means of the FITC Annexin V Apoptosis Detection Kit II(BD Biosciences, San Diego, CA, USA) according to the manufacturer’s instruction. Cells (10,000 cell measured) were analyzed in a BD FACSCanto II flow cytometer (BD Biosciences, San Diego, CA, USA). Annexin V binds with high affinity to phosphatidylserine, and thus, can be used to identify cells in all stages of the programmed cell death. Propidium iodide (PI) exclusively stains cells with a disrupted cell membrane and can be used to identify late apoptotic and dead cells. Cells cultured in a drug-free medium were used as controls. […] The contents of the test tubes were gently vortexed and incubated for 15 min at room temperature, protected from light. After the required time, the contents of the test tubes were made up to 500 µL with the Binding Buffer and immediately analyzed in a flow cytometer. The ratio of the apoptotic cells (early and late) was measured as: a percentage of cells from the upper right square (color red) to percentage of cells from the lower right square (color blue). Analysis was performed using the BD FACSCanto II flow cytometer, and the results were analyzed with FACSDiva software (both from BD Biosciences Systems, San Jose, CA, USA). […]

[16] = Homo sapiens, HCT-116, 72 h, HCT-116, 72 h of incubation, M ± SD
[17] = Homo sapiens, MCF7, 72 h, MCF-7, 72 h of incubation, M ± SD
[18] = Homo sapiens, KB 3-1, 72 h, KB3-1, 72 h of incubation, M ± SD
[19] = HCT-116, 72 h of incubation, M ± SD
[20] = MCF-7, 72 h of incubation, M ± SD
[21] = HL-60, 72 h of incubation, M ± SD

| Compound | IC50 (HCT-116 (colon); [16]) | IC50 [3] | IC50 (MCF-7 (breast); [17]) | IC50 (Jurkat (leukemia)) | IC50 (A549 (lung)) | IC50 (SK-OV-3 (ovarian)) | IC50 (KB3-1 (cervix); [18]) | IC50 [4] | IC50 [5] | IC50 [6] | IC50 [7] | further results |
| --- | --- | --- | --- | --- | --- | --- | --- | --- | --- | --- | --- | --- |
| Cc1nc(Nc2ccccn2)sc1C1=NNC(c2ccccc2F)C1 (stereo not drawn) [Compound 5, {5-[5-(2-Fluorophenyl)-4,5-dihydro-1H-pyrazol-3-yl]-4-methylthiazol-2-yl}-(pyridin-2-yl)-amine] | > 50 µM | 34.5 ± 1.02 µM | > 50 µM | > 50 µM | 33.1 ± 1.32 µM | > 50 µM | 13.1 ± 0.52 µM | > 50 µM | 45.4 ± 2.26 µM | > 50 µM | 34.2 ± 1.7 µM | Growth % (CCRF-CEM (Leukemia)): 19.12%; Growth % (HL-60(TB) (Leukemia)): 4.96%; Growth % (MDA-MB-435 (Melanoma)): −17.91%; Growth % [1]: −13.74%; Growth % [2]: −18.90%; Growth % (K-562 (Leukemia)): 15.13%; Growth % (SR (Leukemia)): 12.44%; Range of Growth, % [8]: −18.90–118.83%; Positive Cytostatic Effect [8]: 25/60; Positive Cytotoxic Effect [8]: 3/60 |
| CC(=O)N1N=C(c2sc(Nc3ccccn3)nc2C)CC1c1ccccc1F (stereo not drawn) [Compound 6, 1-{5-(2-Fluorophenyl)-3-[4-methyl-2-(2-pyridylamino)-thiazol-5-yl]-4,5-dihydropyrazol-1-yl}-ethanone] | > 50 µM | 29.1 ± 1.45 µM | 45.4 ± 2.2 µM | > 100 µM | 63.4 ± 3.81 µM | 39.6 ± 2.37 µM | 24.9 ± 0.74 µM | > 50 µM | – | > 50 µM | – | Growth % (K-562 (Leukemia)): 15.62%; Growth % (SR (Leukemia)): 12.53%; Growth % (SK Mel-5 (Melanoma)): 17.75%; Growth % (T-47D (Brest Cancer)): 14.27%; Range of Growth, % [8]: 12.53–95.32%; Positive Cytostatic Effect [8]: 32/59; Positive Cytotoxic Effect [8]: 0/59 |
| Cc1nc(Nc2ccccn2)sc1C(=O)/C=C/c1ccccc1F [Compound 3, (E)-3-(2-Fluorophenyl)-1-[4-methyl-2-(2-pyridylamino)-thiazol-5-yl]-2-propen-1-one] | – | 2.81 ± 0.16 µM | – | 5.2 ± 0.1 µM | 4.56 ± 0.22 µM | > 50 µM | 7.42 ± 0.22 µM | > 50 µM | > 50 µM | > 50 µM | 7.18 ± 0.21 µM | morphological changes (KB3-1 cells; KB3-1, 5 µM): significantly less DNA damage; IC50 (MCF-7 cells [9]; MCF-7, compound alone (no preincubation), 72 h MTT, read-out: IC50): 3.9 µM; IC50 (HCT-116 (colon); [19]): 2.9 ± 1.03 µM; IC50 (MCF-7 (breast); [20]): 1.86 ± 0.9 µM; IC50 [10, 21]: 0.57 ± 0.35 µM; IC50 [11]: 0.57 to 7.8 µM; IC50 [12]: > 50 µM |
| CC(=O)c1sc(Nc2ccccn2)nc1C [Compound 2, 1-[4-Methyl-2-(2-pyridylamino)thiazol-5-yl]ethanone] | > 50 µM | > 50 µM | > 50 µM | > 50 µM | > 50 µM | > 50 µM | 38 ± 1.9 µM | > 50 µM | – | > 50 µM | – | IC50 [11]: > 50 µM |
| COc1cccc2c1C(=O)c1c(O)c3c(c(O)c1C2=O)C[C@@](O)(C(=O)CO)C[C@@H]3O[C@H]1C[C@H](N)[C@H](O)[C@H](C)O1 [Doxorubicin, reference compound] | – | 1.19 ± 1.3 µM | – | 1.17 ± 0.12 µM | 2 ± 0.35 µM | 3.2 ± 0.1 µM | – | 1.74 ± 1.1 µM | 1.29 ± 0.87 µM | > 10 µM | 3.18 ± 0.25 µM | ability of single cell to grow into a colony (compared with control) (MCF-7 cells [13]): 3%; morphological changes (KB3-1 cells; KB3-1, 1 µM): induced cell membrane damage and membrane blebbing to a greater extent; IC50 (HCT-116 (colon); Homo sapiens, HCT-116, 72 h): 0.9 ± 0.09 µM; IC50 (MCF-7 (breast); Homo sapiens, MCF7, 72 h): 1.04 ± 0.8 µM; IC50 ([10]; Homo sapiens, HL-60, 72 h): 0.38 ± 0.5 µM; IC50 (KB3-1 (cervix); Homo sapiens, KB 3-1, 72 h): 4 ± 1.3 µM |
| CS(=O)(=O)O.Cc1nc(Nc2ccccn2)sc1C(=O)/C=C/c1ccccc1F [Compound 7, (E)-3-(2-Fluorophenyl)-1-[4-methyl-2-(pyridin-1-ium-2-ylamino)thiazol-5-yl]-2-propen-1-one Methanesulfonate] | – | – | – | – | – | – | – | – | – | – | – | cells with depolarized mitochondria (decreased ΔΨm) [14]: 24.7 ± 0.4%; IC50 (HCT-116 (colon); [19]): 7.27 ± 0.27 µM; IC50 (MCF-7 (breast); [20]): 4.3 ± 0.98 µM; IC50 [10, 21]: > 10 µM; IC50 (KB3-1 (cervix); KB3-1, 72 h of incubation, M ± SD): 3.96 ± 1.23 µM; IC50 toward tumor cells (depending on tumor cell line) ([11]; summary over tumor cell lines, MTT): acted more weakly compared with 3 and 4; apoptotic cells (sum of early and late apoptotic cells) [15]: 31.0 ± 1.9% |
| O=C(c1cc(Cc2n[nH]c(=O)c3ccccc23)ccc1F)N1CCn2nc(C(F)(F)F)nc2C1 [Fluzoparib, reference compound] | – | – | – | – | – | – | – | – | – | – | – | IC50 (MCF-7 cells [9]): 47 µM; reduction of cell viability (MCF-7 cells [9]; MCF-7, 5, 10 and 15 µM, compared to non-treated cells): 10–12% |
| N.N.[Cl][Pt][Cl] [cisplatin, reference compound] | – | – | – | – | – | – | – | – | – | – | – | morphological changes (KB3-1 cells; KB3-1, 5 µM): significantly less DNA damage |
